Assay results as given in PMC3368886, “ATPase Cycle and DNA Unwinding Kinetics of RecG Helicase” (PLoS ONE, 2012).

What was measured:
[1] = target: T1, RecG⋅DNA(A40:B40) (Thermotoga maritima, UniProt Q9WY48); assay: Kinetic model simulation of single turnover of mantATP; assay type: biochemical
T1 construct: made in house
T1 sequence (Q9WY48 1-780): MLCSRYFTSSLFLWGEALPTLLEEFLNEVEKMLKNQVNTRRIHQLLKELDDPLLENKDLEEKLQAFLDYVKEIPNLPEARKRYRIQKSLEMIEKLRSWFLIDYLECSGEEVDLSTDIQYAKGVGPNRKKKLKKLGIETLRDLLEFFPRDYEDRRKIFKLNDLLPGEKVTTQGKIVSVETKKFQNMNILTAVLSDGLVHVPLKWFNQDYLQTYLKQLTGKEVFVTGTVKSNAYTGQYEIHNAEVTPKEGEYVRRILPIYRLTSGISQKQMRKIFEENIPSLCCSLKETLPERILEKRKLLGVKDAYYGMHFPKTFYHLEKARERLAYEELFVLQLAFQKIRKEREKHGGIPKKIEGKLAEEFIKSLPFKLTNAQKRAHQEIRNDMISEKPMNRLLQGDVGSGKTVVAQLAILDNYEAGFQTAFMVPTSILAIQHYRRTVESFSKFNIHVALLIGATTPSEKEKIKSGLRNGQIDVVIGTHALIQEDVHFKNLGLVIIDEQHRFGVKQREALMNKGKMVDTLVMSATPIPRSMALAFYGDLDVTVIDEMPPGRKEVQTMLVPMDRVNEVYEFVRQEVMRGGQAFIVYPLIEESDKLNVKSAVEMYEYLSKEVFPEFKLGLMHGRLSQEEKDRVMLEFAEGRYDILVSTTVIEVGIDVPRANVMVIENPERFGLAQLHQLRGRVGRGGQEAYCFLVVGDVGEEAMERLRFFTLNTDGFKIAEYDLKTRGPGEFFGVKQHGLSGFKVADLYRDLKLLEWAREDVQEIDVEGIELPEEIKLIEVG
Procedure: In order to test the data obtained with mantATP for consistency, a simple kinetic model for the ATPase mechanism was used to simulate the data in Figure 4A. The model was based on the scheme in Figure 2A, but included a two-step triphosphate binding as in Figure 2B. The model assumed that Pi release is irreversible and mantADP remains bound under these conditions as its K d (<50 nM) is much less than the experimental concentrations. The difference in fluorescence intensity between protein-bound mantATP and mantADP was included in the modeling with bound mantATP representing 20% of the overall increase, as shown experimentally. The best-fit simulation is shown in Figure 4B, which gave mantATP binding at 5.7 s^−1, followed by a rapid step (“conformation change”) of 30 s^−1, hydrolysis at 0.25 s^−1 and Pi release is fast (>10 s^−1). […] There is a discrepancy with the fit to the data at long times, as the experimental traces are slightly biphasic, which could be due to a small proportion of the protein having modified activity due to damage, for example.
Data were fitted to theoretical equations using the stopped-flow software or Grafit. Kinetic simulations were performed using Berkeley Madonna (Version 8.3, University of California at Berkeley) and using Global Kinetic Explorer (Kintek). Global fits were performed using Global Kinetic Explorer.

[2] = target: T2, RecG (Thermotoga maritima, UniProt Q9WY48); assay: Stopped-flow mantATP binding in the absence of DNA
T2 construct: made in house
T2 sequence (Q9WY48 1-780): T1 sequence (Q9WY48 1-780)
Excerpt: The kinetics of specific steps of the ATPase cycle were investigated in the absence of DNA, to determine which are modulated by the interaction with DNA. For the association measurements between RecG and mantATP, RecG was mixed with excess mantATP in the stopped-flow apparatus and the fluorescence followed with time. Following fitting by single exponentials, there was a linear relationship between the observed rate constant and nucleotide concentration (Figure S3A).
As done for the RecG⋅DNA complex, measurements were also taken with an excess of RecG over mantATP (Figure S3B). A large, relative rapid, increase in mant fluorescence was observed followed by a small gradual increase. The rate constants are consistent with those at excess mantATP. Under the same conditions of excess RecG over mantATP, mantATP cleavage (acid quench) and Pi release were measured (Figure S3B). […] The cleavage step rate constant was 4×10^−4 s^−1, ∼10^3 slower than in the presence of DNA. […] The cleavage step was greatly stimulated by DNA.
Supplementary file pone.0038270.s003.tif: Figure S3 Kinetic measurements in the absence of DNA. (A) Association kinetics with mantATP. Dependence of the observed rate constants on mantATP concentration from mixing 0.5 µM RecG with excess mantATP under the same conditions as Figure 3. Points shown are typically an average of three individual measurements. The best linear fit gives a slope of 0.4 (±0.15) µM^−1 s^−1 and intercept 1.7 (±0.6) s^−1. (B) Fluorescence trace upon mixing 2.5 µM RecG with 0.5 µM mantATP under the conditions of Figure 4. The trace was fitted by an exponential and a slope giving rates of 0.42 (±0.12) s^−1 for the former. Note that as the fluorescence slowly increases beyond the time course, it was not possible to calibrate the ordinate. Inset: Hydrolysis and Pi release for these conditions. The circles represent single time points for a quenched-flow measurement of mantADP formation. Pi release kinetics (continuous line) were measured for the same mixture containing 10 µM MDCC-PBP. (TIF) Click here for additional data file.

In the case of CNc1ccccc1C(=O)O[C@H]1[C@@H](O)[C@H](n2cnc3c(N)ncnc32)O[C@@H]1COP(=O)(O)OP(=O)(O)OP(=O)(O)O [mantATP, 2′(3′)-O-(N-methylanthraniloyl)ATP], the “Pi release (best-fit simulation)” value [1] is reported as > 10 s⁻¹, the “hydrolysis (best-fit simulation)” value [1] is reported as 0.25 s⁻¹ and the “mantATP binding (best-fit simulation)” value [1] is reported as 5.7 s⁻¹. For the same compound, the “rapid step (conformation change) (best-fit simulation)” value [1] was 30 s⁻¹, the “intercept (dissociation)” value ([2]; 0.5 µM RecG, excess mantATP) was 1.7 (±0.6) s^−1 and the “second order association rate constant (slope)” value ([2]; 0.5 µM RecG, excess mantATP) was 0.4 (±0.15) µM^−1s^−1. The “rate of exponential fluorescence increase” value ([2]; 2.5 µM RecG with 0.5 µM mantATP) was 0.42 (±0.12) s^−1 and the Kd ([2]; from intercept and slope) was 4.25 µM.
